Reference: PMC9034499, “RORγt agonist enhances anti-PD-1 therapy by promoting monocyte-derived dendritic cells through CXCL10 in cancers” (Journal of Experimental & Clinical Cancer Research : CR, 2022)
Where two headings read alike, the source gives them in different places.

Tests used:
EL4 cells = test: Direct toxicity on tumor cells (apoptosis, CCK-8); type: cell-based; details: even at higher concentrations of 8-074
Method: To exclude the direct cytotoxic killing effect of 8-074 on tumor cells, we conducted an apoptosis assay, a cell proliferation assay, and a cytotoxic toxicity assay on tumor cells upon 8-074 treatment.
Supplementary file 13046_2022_2289_MOESM2_ESM.pdf: Additional file 2: Fig. S2. Selectivity of RORγt agonists in vitro. (a) The activity of 8-074 in Gal4 reporter gene assays with RORα and RORβ. (RORα EC50 > 10 μM, RORβ EC50 > 10 μM). (b) Summary of bioactivity and selectivity profiles for 8-074 using multiple assays. (c) 8-074 treated Type 17 T cells secreted more Th17 signature cytokines. IL-17F and IL-22 levels secreted by Type 17 T cells during differentiation were assayed by ELISA (*P < 0.05, **P < 0.01). (d) CCK-8 assay was used to determine the cell viability of EL4 cells after treating them with different 8-074 concentrations. Representative data are shown from three independent experiments. […] Lymphoma EL4 cells were treated with various concentrations of 8-074 for 48 hours and analyzed by flow cytometry after Annexin V-FITC/PI staining. […] (h) The relative mRNA expression of Cd19 in B cells as determined by qPCR. […] (i) Relative mRNA expression of Il-1β levels in macrophages as determined by qPCR. ***P < 0.001. (j) Relative mRNA expression of Il-6 in macrophages as determined by qPCR. *P < 0.05. (k) Relative mRNA expression of Il-10 in macrophages as determined by qPCR. *P < 0.05. […]

RORγt LBD protein = biological target: T1, RORγt LBD protein (Homo sapiens, UniProt P51449); test: Biacore binding to RORγt LBD protein; details: RORγt protein immobilized on CM5 chip
T1 construct: RORγt (residues 263–509)-GGG-SRC1; GGG linker + SRC1 peptide (C); His-tag (inferred from pET28a and nickel purification); made in house; host or cells: E. coli strain DE3, pET28a
T1 sequence (P51449 263-509): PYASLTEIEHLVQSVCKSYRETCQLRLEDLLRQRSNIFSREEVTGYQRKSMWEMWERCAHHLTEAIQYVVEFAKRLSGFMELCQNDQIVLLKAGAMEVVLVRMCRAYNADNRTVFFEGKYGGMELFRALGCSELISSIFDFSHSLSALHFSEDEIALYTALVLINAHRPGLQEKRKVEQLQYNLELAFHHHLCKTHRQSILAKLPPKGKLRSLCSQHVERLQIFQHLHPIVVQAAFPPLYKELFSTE
Excerpt: Human nuclear receptor RORγt (residues 263–509)-GGG-SRC1 (SRC1 sequence: EKHKILHRLLQDS, Sangon Biotech, Shanghai). RORγt LBD was cloned in pET28a. Key residue mutations of RORγt LBD (such as PHE388, LEU391, CYS393, LEU396, ILE397, ILE400, CYS320, ALA321, LEU324, MET358, and PHE388) with LYC-55716 were cloned in pET28a. Key residue mutations of RORγt LBD (MET365, ALA368, PHE401, ILE400, ILE397, LEU396, TRP317, CYS320, LEU324, ALA327, TYR330, VAL331, MET358, and VAL361) with 8-074 were cloned in pET28a. The proteins were expressed in E. coli strain DE3. Then, the transformed E. coli culture was grown at 37 °C with 30 μg/mL Kanamycin LB (Luria–Bertani). When the OD600 of LB medium reached 0.6, the temperature was changed to 16 °C, and isopropyl-β-D-thiogalactopyranoside (IPTG, Beyotime, Shanghai, China) was added at a final concentration of 0.4 mM to induce protein expression for 16 h. After 16 h, the pellet was collected after centrifugation at 4,000 rpm for 15 min at 4 °C. […]
The RORγt protein was immobilized on a CM5 chip (GE Health, Chicago, USA) using Biaocre 8 K. A sensogram was obtained using different serial concentrations of 8-074 (5000 nM, 2500 nM, 1250 nM, 625 nM, 312.5 nM, 156.25 nM, 78.125 nM, and 39.0625 nM). […] Data were analyzed using Biacore Evaluation Software.

mouse Tc17 cells = test: Mouse Th17/Tc17 differentiation dose-response (flow cytometry); type: cell-based; details: for EC50: Mus musculus
hRORγt LBD = biological target: T2, hRORγt LBD (Homo sapiens, UniProt P51449); test: RORγt GAL4 cell-based reporter gene assay; details: HEK293T host cells; read-out: EC50, RORγt agonist activity in Gal4 reporter gene assay
T2 construct: expressed in transfected cells; host or cells: HEK293T
T2 sequence (P51449 269-508 limits assumed): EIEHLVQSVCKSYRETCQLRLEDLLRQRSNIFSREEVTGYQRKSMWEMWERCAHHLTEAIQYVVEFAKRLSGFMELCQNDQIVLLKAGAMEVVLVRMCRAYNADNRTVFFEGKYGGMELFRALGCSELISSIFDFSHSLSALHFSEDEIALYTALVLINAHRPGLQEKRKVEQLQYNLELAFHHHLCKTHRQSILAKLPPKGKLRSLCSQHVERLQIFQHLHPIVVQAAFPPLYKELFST
Method: The hRORγt LBD coding sequence was inserted into a pBIND expression vector (Promega, E1581) to express the ROR-GAL4 binding domain chimeric receptors. This expression vector and a reporter vector (pGL4.35, which carries a stably integrated GAL4 promoter-driven luciferase reporter gene [luc2P/9XGAL4 UAS/Hygro]) were co-transfected into the HEK293T host cells. The assay was performed according to a previous study. EC50 of the sigmoidal fits were analyzed using Prism 5 and a four-parameter logistic fit equation, Y = bottom + (top–bottom) / (1 + 10(logEC50 − X) × hill slope). "X" is the log of compound concentration, and "Y" is the response, which increases as X increases. Y starts at "bottom" and goes to "top" with a sigmoid shape.

[1] = fit of dose-response curve Fig. 1i

Structure (SMILES): CCS(=O)(=O)c1ccc(CC(=O)Nc2ccc(-c3ccc(CC(C)C)c(C#N)c3)c(C(F)(F)F)c2)cc1 [8-074]
- apoptosis in the tumor EL4 cells (EL4 cells): not observed
- cytotoxicity on tumor cells (EL4 cells): not observed
- Kd (RORγt LBD protein): 0.497 µM
- EC50 (mouse Tc17 cells; 8-074 0.001 to 320 nM, Th17% by flow cytometry, read-out: EC50, stimulation of mouse Tc17 cells): 0.0112 µM
- EC50 (mouse Tc17 cells; Fig. S2b summary, read-out: mTh17): 0.0112 µM
- HillSlope (mouse Tc17 cells; [1]): 1.006
- Span (mouse Tc17 cells; [1]): 111.9
- EC50 (hRORγt LBD): 0.119 µM
